Measured values reported in patent publication US20110091570A1, “Compositions and Devices for Antisepsis and Anticoagulation” (priority 2008, published 2011).
Values joined by “and” are separate entries in the source; they are usually repeats but may differ in a detail not shown here. Identical values can stand only once.

Tests used:
citrate blood [1] = assay: Activated partial thromboplastin time (aPTT), Pathromtin SL test; type: biochemical, human
Method: (§1) Whole blood was taken from volunteers and enriched with trisodium citrate (0.3 mL of a 0.106 molar solution per 3 mL whole blood) (S-Monovette®, Sarstedt, Nümbrecht, Germany). Routine coagulation tests were performed on the following samples:
(§2) The following commercial coagulation tests were performed according to the prescription of the manufacturer: prothrombin time (PT) was determined using Thromborel® S test (Dade Behring GmbH, Marburg, Germany); activated partial thromboplastin time (aPTT) was determined using Pathromtin* SL test (Dade Behring GmbH, Marburg, Germany); and thrombin time (TT) was determined using BC Thrombin Reagent test (Dade Behring GmbH, Marburg, Germany).
(§3) Whole blood was taken from a single volunteer and enriched with trisodium citrate (0.3 mL of a 0.106 molar solution per 3 mL whole blood) (S-Monovette®, Sarstedt, Nümbrecht, Germany). Portions of 1.8 mL citrate blood were mixed with 0.2 mL NCT in 0.9% saline. The following final (after dilution in blood) NCT concentrations were tested separately: 1% (55 mM); 0.5% (27.5 mM); 0.25% (13.75 mM); 0.1% (5.5 mM); 0.05% (2.75 mM); 0.025% (1.375 mM); and 0.01% (0.55 mM). A control without NCT was performed in parallel. The following commercial coagulation tests were performed according to the prescription of the manufacturer: prothrombin time (PT) was determined using Thromborel® S test (Dade Behring GmbH, Marburg, Germany), activated partial thromboplastin time (aPTT) was determined using Pathromtin* SL test (Dade Behring GmbH, Marburg, Germany); thrombin time (TT) was determined using BC Thrombin Reagent test (Dade Behring GmbH, Marburg, Germany); and fibrinogen was determined using Multifibren* U test (Dade Behring GmbH, Marburg, Germany).
(§4) Whole blood was taken from 11 volunteers and enriched with trisodium citrate (0.3 mL of a 0.106 molar solution per 3 mL whole blood) (S-Monovette®, Sarstedt, Nümbrecht, Germany). Commercial coagulation tests (as described in Example 6) were performed with the following samples: […]

citrate blood [2] = assay: International normalized ratio (INR); type: biochemical, human; conditions: Example 7, 0.25 IE heparin
Method: as §4

citrate blood [3] = assay: Thrombin time (TT), BC Thrombin Reagent test; type: biochemical, human; conditions: Example 7, 0.25 IE heparin
Method: as §1, §2, §3, §4

citrate blood [4] = assay: Prothrombin time (PT), Thromborel S test; type: biochemical, human; conditions: Example 7, 0.25 IE heparin
Method: as §1, §2, §3, §4

D-Dimer = D-Dimer in citrate blood; type: biochemical, human; conditions: Example 7, 0.25 IE heparin
Method: as §4

Antithrombin III = Antithrombin III in citrate blood; type: biochemical, human; conditions: Example 7, 0.25 IE heparin
Method: as §4

Fibrinogen = molecular target: T1, Fibrinogen (Homo sapiens, UniProt P02671+P02675+P02679); assay: Fibrinogen, Multifibren U test; type: biochemical; conditions: Example 7, 0.25 IE heparin
T1 construct: from tissue; host or cells: citrated whole blood of volunteers
T1 sequence (P02671 20-629 limits assumed): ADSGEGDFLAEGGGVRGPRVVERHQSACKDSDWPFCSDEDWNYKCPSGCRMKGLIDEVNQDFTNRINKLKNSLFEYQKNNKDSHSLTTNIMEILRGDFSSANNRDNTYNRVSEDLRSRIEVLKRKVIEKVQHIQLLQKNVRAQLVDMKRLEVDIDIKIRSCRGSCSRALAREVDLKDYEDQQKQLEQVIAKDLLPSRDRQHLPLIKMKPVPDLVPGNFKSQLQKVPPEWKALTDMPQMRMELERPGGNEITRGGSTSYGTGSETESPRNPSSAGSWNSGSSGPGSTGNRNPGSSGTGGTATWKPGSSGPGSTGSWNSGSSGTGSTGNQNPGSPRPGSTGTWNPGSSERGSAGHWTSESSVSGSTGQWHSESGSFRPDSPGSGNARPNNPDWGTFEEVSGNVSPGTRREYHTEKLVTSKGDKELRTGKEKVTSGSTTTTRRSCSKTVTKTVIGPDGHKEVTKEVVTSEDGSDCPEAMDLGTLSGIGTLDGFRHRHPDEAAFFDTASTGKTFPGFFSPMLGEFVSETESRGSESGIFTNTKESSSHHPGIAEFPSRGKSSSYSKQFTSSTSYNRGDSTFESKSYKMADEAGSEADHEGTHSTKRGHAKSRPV
T1 sequence (P02675 31-491): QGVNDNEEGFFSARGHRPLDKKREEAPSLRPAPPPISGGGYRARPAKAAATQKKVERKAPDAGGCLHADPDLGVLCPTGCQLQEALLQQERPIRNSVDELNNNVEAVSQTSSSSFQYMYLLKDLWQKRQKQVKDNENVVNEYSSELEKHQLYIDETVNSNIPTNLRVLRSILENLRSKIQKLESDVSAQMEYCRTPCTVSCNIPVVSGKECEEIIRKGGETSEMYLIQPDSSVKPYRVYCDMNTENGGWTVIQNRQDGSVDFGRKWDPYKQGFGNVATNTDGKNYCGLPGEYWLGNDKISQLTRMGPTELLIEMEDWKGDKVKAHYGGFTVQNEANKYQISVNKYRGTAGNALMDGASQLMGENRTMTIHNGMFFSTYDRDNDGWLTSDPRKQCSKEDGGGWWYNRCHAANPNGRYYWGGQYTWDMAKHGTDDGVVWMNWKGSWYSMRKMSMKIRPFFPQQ
T1 sequence (P02679 27-453): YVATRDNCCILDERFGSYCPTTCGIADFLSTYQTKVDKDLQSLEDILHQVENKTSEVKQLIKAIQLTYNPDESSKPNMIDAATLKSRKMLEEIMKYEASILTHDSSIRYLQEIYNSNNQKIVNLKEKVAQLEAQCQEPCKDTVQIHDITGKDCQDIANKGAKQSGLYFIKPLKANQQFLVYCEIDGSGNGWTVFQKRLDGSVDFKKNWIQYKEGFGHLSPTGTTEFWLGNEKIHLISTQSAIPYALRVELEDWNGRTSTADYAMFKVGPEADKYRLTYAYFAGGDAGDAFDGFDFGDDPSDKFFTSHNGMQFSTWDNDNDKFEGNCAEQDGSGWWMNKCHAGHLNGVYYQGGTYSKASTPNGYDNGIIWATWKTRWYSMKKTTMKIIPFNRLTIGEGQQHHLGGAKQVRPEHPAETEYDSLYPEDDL
Method: as §3, §4

infected injuries = conditions: applied intravenously [Ref. 1]; cited from earlier work

Compound | activated partial thromboplastin time (citrate blood [1]; Example 5, citrate blood plus 0.25 IE heparin, increased from 36) [s] | Activated partial thromboplastin time (aPTT) (citrate blood [1]; Example 7, 0.25 IE heparin, individual subjects 1-11) | Activated partial thromboplastin time (aPTT), mean value (citrate blood [1]; Example 7, 0.25 IE heparin, mean of 11 subjects) [s] | International normalized ratio (INR) (citrate blood [2]; individual subjects 1-11) | International normalized ratio (INR), mean value (citrate blood [2]; mean of 11 subjects) | Thrombin time (TT) (citrate blood [3]; individual subjects) [s] | Thrombin time (TT), mean value (citrate blood [3]; mean of 11 subjects) [s] | Prothrombin time (PT) (citrate blood [4]; individual subjects 1-11) | Prothrombin time (PT), mean value (citrate blood [4]; mean of 11 subjects) [%] | D-Dimer (D-Dimer; individual subjects 1-11) | D-Dimer, mean value (D-Dimer; mean of 11 subjects) [µg/L] | Antithrombin III (Antithrombin III; individual subjects 1-11) | Antithrombin III, mean value (Antithrombin III; mean of 11 subjects) [%] | Fibrinogen (Fibrinogen; individual subjects 1-11) | Fibrinogen, mean value (Fibrinogen; mean of 11 subjects) [mg/dL] | side effects of intravenous application (infected injuries)
heparin [reference compound] | 56 | 283 s and 187 s and 135 s and 177 s and 375 s and 300 s and 400 s and 216 s and 284 s and 195 s and 169 s | 247.4 | 1.2 (6×) and 1.3 (2×) and 1.1 (2×) and 1.4 | 1.2 | 400 | 400.0 | 66% and 58% and 89% (2×) and 62% and 74% and 54% and 69% and 78% and 68% and 72% | 70.8 | 217 µg/L and 199 µg/L and 353 µg/L and 146 µg/L and 76 µg/L and 183 µg/L and 285 µg/L and 159 µg/L and 150 µg/L and 203 µg/L and 157 µg/L | 193.5 | 93% and 79% and 99% and 83% (2×) and 81% (2×) and 88% and 113% and 75% and 94% | 88.1 | 214 mg/dL and 155 mg/dL and 313 mg/dL and 153 mg/dL and 234 mg/dL and 236 mg/dL and 379 mg/dL and 309 mg/dL and 259 mg/dL and 283 mg/dL and 249 mg/dL | 253.1 | –
Cc1ccc(S(=O)(=O)[N-]Cl)cc1.[Na+] [chloramine T] | – | – | – | – | – | – | – | – | – | – | – | – | – | – | – | severe side effects such as pericardial and lung edema
